In patent publication US4540581A, “Topical nonsteroidal anti-inflammatory compositions and uses” (Bristol-Myers Company, priority 1984, dated 1985):
Several values for one entry are separate records, joined by “and”; a condition that tells them apart may be missing. Equal values may be shown once. Where a name gives a salt, the structure may show the parent alone.

Assays:
[1] = tested on: Croton Oil-Induced Mouse Ear Edema; experiment: Croton oil-induced ear edema in mice (Example 1); assay type: in vivo; conditions: for % Inhibition of Croton Oil-Induced Mouse Ear Edema: topical, 6 h, mean of 10 to 15 animals; for Reduction in ear edema in the croton oil assay (in words): zinterol at 1.6 and 0.2 w/v percent, bitolterol at 1.6 w/v percent; for Topical Anti-Inflammatory Activity, Croton Oil Assay (Edema): summary grade of % inhibition
Procedure: In the croton oil assay, (which is a standard test, which is fully described in Tonelli et al, Endocrinology, vol. 77, pp. 625-634, 1965, and which is hereby incorporated herein by reference) topical application of four % croton oil in ethanol (v/v) to the ears of mice causes intercellular edema, vasodilation, and polymorphonuclear leucocyte infiltration into the dermis, leading to an increase over normal ear weight of about 70 to 100%. The inflammatory response is nearly maximal by 6 hours. In the croton oil tests, four volume % croton oil in ethanol was applied to the inner aspect of both ears of each test mouse, and various test materials in vehicle systems were applied to the outer aspect of the ears immediately following croton oil application. Control animals were exposed either to croton oil alone or to croton oil followed by the vehicle alone.
Six hours after exposure to croton oil and/or test material, animals were sacrificed; and punch biopsies of the ears were weighed and compared to the respective vehicle control.
Compounds were tested in simple solutions, including dimethylacetamide/acetone/ethanol (i.e., DMAC/A/E v/v 40/30/30) and N-methyl pyrrolidone/ethanol (NMP/E v/v 50/50). Comparative controls were chosen based on their known activity in each of the three above-described animal assays and included in all three tests (in Examples 1, 2 and 3) hydrocortisone valerate (HCV) in the croton oil and oxazolone assays, indomethacin (which is a potent aspirin-like nonsteroidal anti-inflammatory agent) in the UVB test, and salbutamol (a β2 agonist, discussed above in the Background of the Invention).
(§1) The percent inhibition of induced mouse ear edema (or erythema) for each of the three models (in Examples 1, 2 and 3) is calculated: [formula]

[2] = tested on: croton oil-induced ear edema in mice; experiment: Croton oil-induced ear edema in mice, compounds IV and V vs zinterol (Example 4); assay type: in vivo, Swiss albino mice; conditions: for % Reduction of Ear Edema Weight as Compared to Control Ears, Mean ± S.D.: mean of studies; for % Reduction of Ear Edema Weight as Compared to Control Ears / Anti-inflammatory activity in croton oil-induced ear edema (in words): topical; for % Reduction of Ear Edema Weight as Compared to Control Ears: 6 h, single study; for Anti-inflammatory activity in croton oil-induced ear edema (in words): NMP/ETOH
Procedure: In these tests, the anti-inflammatory effect of these three β2 agonists when applied topically to the croton oil-induced ear edema in mice was investigated. In these tests, 50 μl of 4 weight percent croton oil in ethanol was applied to the inner aspects of the right and the left ears of Swiss albino mice, followed immediately by 25 μof suspensions of 0.02, 0.2, and 0.8 weight percent of compound IV and compound V in N-methylpyrrolidone/Ethyl alcohol (i.e., NMP/ETOH) applied to the outer aspect of each ear. Croton oil treated and nontreated control groups were included. These control groups are included in the data as described hereinbefore.
Six hours later, the animals were sacrificed with CO2 gas, and a 5/16 inch punch biopsy of each ear was taken and weighed immediately.
The anti-inflammatory effects for the test agents were assessed by a comparison of the biopsy weights of the test and control groups.

[3] = tested on: Oxazolone-Induced Edema in Mouse Ear; experiment: Oxazolone-induced ear edema in mice (Example 2); assay type: in vivo; conditions: for % Inhibition of Oxazolone-Induced Edema in Mouse Ear: topical, mean of 10 to 15 animals; for Topical Anti-Inflammatory Activity, Oxazolone Assay (Edema): summary grade of % inhibition
Source text: Oxazolone-induced contact sensitization in mice is characterized by edema and cellular infiltration, primarily of the monocyte type, with close to 100% increase in the mouse ear weight.

[4] = tested on: UVB-Induced Erythema in Guinea Pig; experiment: UVB-induced erythema in guinea pigs (Example 3); assay type: in vivo; conditions: for Topical Anti-Inflammatory Activity, UV-B Assay (Erythema): summary grade of % inhibition; for Activity in the UVB assay (in words): zinterol 3 and 1.6 weight percent, indomethacin 1 weight percent
Procedure: as §1
In the UVB test, cutaneous erythema is induced in guinea pigs.This test is a standard test widely used for testing anti-inflammatory agents and is fully described in K. F. Swingle, "Evaluation for Anti-Inflammatory Activity", in Anti-Inflammatory Agents, vol. 2, ed. by Scherrer and Whitehouse, pp. 34-122, London: Academic Press, 1974, hereby incorporated herein by reference. In the UVB model, the test material was applied topically to the irradiated sites immediately following exposure to UVB. Erythema was scored on a 0 to 4 scale, 3 and 6 hours after irradiation.

[5] = Solubility of active ingredient in vehicles; assay type: physicochemical
[6] = 1.6 w/v %, in NMP/ETOH (50/50), salbutamol in Ethanol/H2O (50/50)
[7] = 0.02 % weight/volume in NMP/ETOH
[8] = 0.2 % weight/volume in NMP/ETOH
[9] = 0.8 % weight/volume in NMP/ETOH
[10] = 0.2 w/v %, in DMAC/acetone/ethanol (40:30:30)
[11] = 1.6 w/v %, in DMAC/acetone/ethanol (40:30:30)
[12] = 3 w/v %, in N-methylpyrrolidone:ethanol (1:1)
[13] = 3 w/v %, N-methyl 2-pyrrolidone/ethanol (50/50), 3 h, salbutamol in Ethanol/H2O or NMP/H2O
[14] = 3 w/v %, N-methyl 2-pyrrolidone/ethanol (50/50), 6 h, salbutamol in Ethanol/H2O or NMP/H2O

Cc1ccc(C(=O)Oc2ccc(C(O)CNC(C)(C)C)cc2OC(=O)c2ccc(C)cc2)cc1 (centres unmarked) [Bitolterol, bitolterol]
% Inhibition of Croton Oil-Induced Mouse Ear Edema ([1]; 0.2 w/v %, in NMP/ETOH (50/50)): 42% and 25% and 34% | % Inhibition of Croton Oil-Induced Mouse Ear Edema [1, 6]: 61% | Reduction in ear edema in the croton oil assay (in words) [1]: good to moderate reductions in ear edema

CC(Cc1c[nH]c2ccccc12)NCC(O)c1ccc(O)c(NS(C)(=O)=O)c1 (centres unmarked) [Compound IV]
% Reduction of Ear Edema Weight as Compared to Control Ears, Mean ± S.D. [2, 7]: 18.1 ± 10.6% | % Reduction of Ear Edema Weight as Compared to Control Ears [2, 8]: 32.9% and 48.7% and 49.4% | % Reduction of Ear Edema Weight as Compared to Control Ears, Mean ± S.D. [2, 8]: 43.7 ± 9.3% | % Reduction of Ear Edema Weight as Compared to Control Ears [2, 9]: 61.6% and 53.4% | % Reduction of Ear Edema Weight as Compared to Control Ears, Mean ± S.D. [2, 9]: 57.5 ± 5.8% | Anti-inflammatory activity in croton oil-induced ear edema (in words) [2]: comparable to that of zinterol

CC(C)(Cc1c[nH]c2ccccc12)NCC(O)c1ccc(O)c(NS(C)(=O)=O)c1 (centres unmarked) [Compound V]
% Reduction of Ear Edema Weight as Compared to Control Ears [2, 7]: 29.9% | % Reduction of Ear Edema Weight as Compared to Control Ears [2, 8]: 53.5% | % Reduction of Ear Edema Weight as Compared to Control Ears [2, 9]: 69.9% | Anti-inflammatory activity in croton oil-induced ear edema (in words) [2]: comparable to that of zinterol

CCCCC(=O)O[C@]1(C(=O)CO)CC[C@H]2[C@@H]3CCC4=CC(=O)CC[C@]4(C)[C@H]3[C@@H](O)C[C@@]21C [HCV, hydrocortisone valerate]
% Inhibition of Oxazolone-Induced Edema in Mouse Ear [3, 10]: 16% | % Inhibition of Oxazolone-Induced Edema in Mouse Ear [3, 11]: 36% and 27% | % Inhibition of Oxazolone-Induced Edema in Mouse Ear [3, 12]: 39% | Topical Anti-Inflammatory Activity, Oxazolone Assay (Edema) [3]: + (+ = Slight (30-44)) | % Inhibition of Croton Oil-Induced Mouse Ear Edema ([1]; 0.2 w/v %, in DMAC/Acetone/ETOH, salbutamol in Ethanol/H2O (50/50), minus = potentiation): 25% and 38% and 34% | % Inhibition of Croton Oil-Induced Mouse Ear Edema ([1]; 0.2 w/v %, in NMP/ETOH (50/50)): 71% and 62% and 64% and 67% and 73% | % Inhibition of Croton Oil-Induced Mouse Ear Edema [1, 6]: 70% and 71% | Topical Anti-Inflammatory Activity, Croton Oil Assay (Edema) [1]: +++ (+++ = high (60%))

COc1ccc2c(c1)c(CC(=O)O)c(C)n2C(=O)c1ccc(Cl)cc1 [Indomethacin, indomethacin]
Topical Anti-Inflammatory Activity, Oxazolone Assay (Edema) [3]: + (+ = Slight (30-44)) | % Change in UVB-Induced Erythema in Guinea Pig ([4]; 1%, DMAC/acetone/ethanol (40/30/30), 3 h): 72% and 54% and 82% | % Change in UVB-Induced Erythema in Guinea Pig ([4]; 1%, DMAC/acetone/ethanol (40/30/30), 6 h): 43% and 48% and 54% | % Change in UVB-Induced Erythema in Guinea Pig ([4]; 1%, N-methyl 2-pyrrolidone/ethanol (50/50), 3 h): 100% and 93% and 91% | % Change in UVB-Induced Erythema in Guinea Pig ([4]; 1%, N-methyl 2-pyrrolidone/ethanol (50/50), 6 h): 74% and 85% and 87% | Topical Anti-Inflammatory Activity, UV-B Assay (Erythema) [4]: +++ (+++ = high (60%)) | Activity in the UVB assay (in words) [4]: good to very good activity | Topical Anti-Inflammatory Activity, Croton Oil Assay (Edema) [1]: + (+ = Slight (30-44))

CC(C)(C)NCC(O)c1ccc(O)c(CO)c1 (centres unmarked) [Salbutamol, salbutamol]
% Inhibition of Oxazolone-Induced Edema in Mouse Ear [3, 10]: -1% and -9% | % Inhibition of Oxazolone-Induced Edema in Mouse Ear [3, 11]: 2% and 0% | % Inhibition of Oxazolone-Induced Edema in Mouse Ear ([3]; 1.6 w/v %, in N-methylpyrrolidone:ethanol (1:1)): 21% and 28% | % Inhibition of Oxazolone-Induced Edema in Mouse Ear [3, 12]: 31% | Topical Anti-Inflammatory Activity, Oxazolone Assay (Edema) [3]: + (+ = Slight (30-44)) | % Change in UVB-Induced Erythema in Guinea Pig ([4]; 1.6 w/v %, DMAC/acetone/ethanol (40/30/30), 3 h, salbutamol in Ethanol/H2O or NMP/H2O): 9% | % Change in UVB-Induced Erythema in Guinea Pig ([4]; 1.6 w/v %, DMAC/acetone/ethanol (40/30/30), 6 h, salbutamol in Ethanol/H2O or NMP/H2O): +4% | % Change in UVB-Induced Erythema in Guinea Pig [4, 13]: 42% and 45% | % Change in UVB-Induced Erythema in Guinea Pig [4, 14]: 32% and 25% | Topical Anti-Inflammatory Activity, UV-B Assay (Erythema) [4]: + (+ = Slight (30-44)) | Topical Anti-Inflammatory Activity, Croton Oil Assay (Edema) [1]: + (+ = Slight (30-44))

CC(C)(Cc1ccccc1)NCC(O)c1ccc(O)c(NS(C)(=O)=O)c1 (centres unmarked) [Zinterol, 2-hydroxy-5'-[1-hydroxy-2-(2-methyl-1-phenyl-2-propylamino)ethyl]methanesulfonanilide]
Reduction in ear edema in the oxazolone assay (in words) ([3]; 3 and 1.6 weight percent): slight reduction in ear edema with no dose-related effect | % Inhibition of Oxazolone-Induced Edema in Mouse Ear [3, 12]: 39% | Topical Anti-Inflammatory Activity, Oxazolone Assay (Edema) [3]: + (+ = Slight (30-44)) | % Reduction of Ear Edema Weight as Compared to Control Ears [2, 7]: 14.2% and 23.6% | % Reduction of Ear Edema Weight as Compared to Control Ears, Mean ± S.D. [2, 7]: 18.9 ± 6.6% | % Reduction of Ear Edema Weight as Compared to Control Ears [2, 8]: 39.5% and 66.2% and 46.6% | % Reduction of Ear Edema Weight as Compared to Control Ears, Mean ± S.D. [2, 8]: 50.8 ± 13.8% | % Reduction of Ear Edema Weight as Compared to Control Ears [2, 9]: 68.2% and 56.6% | % Reduction of Ear Edema Weight as Compared to Control Ears, Mean ± S.D. [2, 9]: 62.4 ± 8.2% | % Change in UVB-Induced Erythema in Guinea Pig ([4]; 1.6 w/v %, N-methyl 2-pyrrolidone/ethanol (50/50), 3 h): 9% | % Change in UVB-Induced Erythema in Guinea Pig ([4]; 1.6 w/v %, N-methyl 2-pyrrolidone/ethanol (50/50), 6 h): 26% | % Change in UVB-Induced Erythema in Guinea Pig [4, 13]: 48% and 75% | % Change in UVB-Induced Erythema in Guinea Pig [4, 14]: 18% and 25% | Topical Anti-Inflammatory Activity, UV-B Assay (Erythema) [4]: + (+ = Slight (30-44)) | Activity in the UVB assay (in words) [4]: slight to moderate activity with no consistent dose effect | Topical cutaneous anti-inflammatory activity in the croton oil assay (in words) ([1]; 1.6 w/v %): high topical cutaneous anti-inflammatory activity | % Inhibition of Croton Oil-Induced Mouse Ear Edema ([1]; 1.6 w/v %, in DMAC/Acetone/ETOH, salbutamol in Ethanol/H2O (50/50)): 69% and 50% and 81% and 66% and 63% and 48% and 45% | % Inhibition of Croton Oil-Induced Mouse Ear Edema [1, 6]: 69% and 63% and 70% and 48% and 73% | Topical Anti-Inflammatory Activity, Croton Oil Assay (Edema) [1]: +++ (+++ = high (60%)) | Reduction in ear edema in the croton oil assay (in words) [1]: good to moderate reductions in ear edema

CC(C)(Cc1ccccc1)NCC(O)c1ccc(O)c(NS(C)(=O)=O)c1 (centres unmarked) [zinterol hydrochloride]
solubility ([5]; organic solvent or mixture, cream vehicle, read-out: Amount that will dissolve in creams): ≤ 7000 µg/mL | Solubility (in words) ([5]; water): water soluble
